We go through 4 molecules from patent publication US12441732B2, “Potassium salt crystal form B of phosphodiesterase type 5 inhibitor, and preparation method and use therefor” (Guangzhou Huazhen Pharmaceutical Co., Ltd, priority 2019, dated 2025).

Each structure is given as a SMILES string. In brackets after ≈: the same amount, converted by molar mass. Read-outs that look alike come from different tables or passages of the source.

One data set concerns IPF rats. Nature of the data set: Bleomycin-induced idiopathic pulmonary fibrosis (IPF) rats. It is filed as in vivo, SD rats. The note with it: 23 days.
The test system of data set [1] is PAH rats. Nature of the data set: Penile erectile function observation in PAH rats. The data set is classed as in vivo, SD rats. The protocol:
After gavage treatment, penile erection in the animals was observed, wherein the time of penile erection phenomenon after gavage was recorded in each group.

For data set [2] the following is noted: background statement; cited from earlier work.
The subject of data set [3] is PAH rats. In words: Monocrotaline-induced pulmonary arterial hypertension (PAH) rats: RVSP, RVMI, pulmonary arterioles. The data set is classed as in vivo, SD rats. The following applies: for RVMI, RV/(LV+S) / RVSP: 3 weeks after MCT. The source says:
SD rats were randomly divided into 8 groups, 15 rats/group: a normal control group (Vehicle); a PAH model group (MCT); a PAH+potassium salt crystal form B of WYQ mini-dose group (hereafter referring to as a mini-dose group); a PAH+potassium salt crystal form B of WYQ low-dose group (hereafter referring to as a low-dose group); a PAH+potassium salt crystal form B of WYQ medium-dose group (hereafter referring to as a medium-dose group); a PAH+potassium salt crystal form B of WYQ high-dose group (hereafter referring to as a high-dose group); a PAH+Sildenafil control group (hereafter referring to as a Sildenafil group); a PAH+Tadalafil control group (hereafter referring to as a Tadalafil group).
MCT was fully dissolved with 1M dilute HCl, diluted with double-distilled water, and adjusted to pH=7.2 with 3M NaOH, thereby preparing a MCT solution with a final concentration of 20 mg/ml.
The normal control group was injected subperitoneally with normal saline (50 mg/kg), and the rest of the groups were injected subperitoneally with MCT (50 mg/kg) at one time.
Mini-dose group: the potassium salt crystal form B of WYQ was prepared into a 0.4 mg/ml medicinal solution (ready to use) with normal saline, and administered by gavage at the dose of 2 mg·kg^−1d^−1;
Low-dose group: the potassium salt crystal form B of WYQ was prepared into a 1 mg/ml medicinal solution (ready to use) with normal saline, and administered by gavage at the dose of 5 mg·kg^−1d^−1;
Medium-dose group: the potassium salt crystal form B of WYQ was prepared into a 2 mg/ml medicinal solution (ready to use) with normal saline, and administered by gavage at the dose of 10 mg·kg^−1d^−1;
High-dose group: the potassium salt crystal form B of WYQ was prepared into a 4 mg/ml medicinal solution (ready to use) with normal saline, and administered by gavage at the dose of 20 mg·kg^−1d^−1;
Sildenafil group: Sildenafil was prepared into a 5 mg/ml medicinal solution (ready to use) with 0.5% sodium carboxymethyl cellulose, and administered by gavage at the dose of 25 mg·kg^−1d^−1;
Tadalafil group: Tadalafil was prepared into a 2 mg/ml medicinal solution (ready to use) with 0.5% sodium carboxymethyl cellulose, and administered by gavage at the dose of 10 mg·kg^−1d^−1.
The day of injection was the starting date of the experiment, and the administration was started after 7 days of modeling, once a day for 14 consecutive days.
After 3 weeks from the starting date of the experiment, RVSP data were collected on RM-6240E polygraph for each group of rats.
After 3 weeks from the starting date of the experiment, the animals were anesthetized, hemodynamically tested (RM-6240E polygraph), and sacrificed after manometry. The cardiopulmonary tissues were immediately dissected, and the right and left atria and great vessels were cut off along the atrioventricular junction with ophthalmic scissors to separate the right ventricle (RV) and left ventricular wall plus septum (LV+S), which was absorbed water with filter paper and weighed respectively, and RV/(LV+S), i.e., RVMI was calculated.
After 3 weeks from the starting date of the experiment, rats were heparinized with heparin (50 IU/100 g, intraperitoneal injection) for 5 min. The animals were anesthetized by injection of 20% urethane solution (0.5 ml/100 g), and the blood pressure indexes were detected and recorded.
The heart was dissected, the right ventricular wall was separated, and the left ventricle and the septum were separated, which were absorbed water with filter paper and weighed respectively to calculate the right ventricular hypertrophy index.
The lungs were dissected, wherein the right lung was ligated, and the left lung lobe was perfused with a fixative (4% paraformaldehyde) and then fixed in the fixative, dehydrated by ethanol gradient, allowed to become transparent by using xylene, immersed in wax, embedded in paraffin, sectioned (4 μm), stained with hematoxylin-eosin (HE), sealed with neutral gum and then observed under a microscope. […]

A further data set has as its target PDE5 (Homo sapiens, UniProt O76074). The note with it: background statement; cited from earlier work.
A short description of data set [4]: Dynamic solubility test in water, SGF, FaSSIF, FeSSIF at 37° C. It is filed as physicochemical. The note with it: for solubility at 1 h / solubility at 4 h / solubility at 24 h: thermodynamic from solid, read-out: solubility (S).
The nature of data set [5]: Solid-state stability test (one week, open). It is filed as physicochemical. The note with it: for HPLC purity: Purity after placement / Purity after placement/Starting purity / Crystal form change: open; for Crystal form change: XRPD. As for the experimental part:
The solid-state stability of the potassium salt crystal form B prepared in Embodiment 1 was tested, in which 5.22 mg of potassium salt crystal form B samples were weighed and left open at 25° C./60% RH, and 5.19 mg of potassium salt crystal form B samples were weighed and left open at 40° C./75% RH. After one week, all samples were subjected to XRPD characterization (see XRPD parameter settings in Table 1) and HPLC purity test (Agilent 1100) to detect changes in crystal form and purity, wherein HPLC purity test parameters were shown in Table 6. Meanwhile, 4.59 mg of a compound WYQ sample was weighed and left open at 25° C./60% RH, and 5.11 mg of the compound WYQ sample was weighed and left open at 40° C./75% RH. The solid-state stability of these samples were performed under the same conditions for comparative reference.

The mark [6] stands for this setting: Sildenafil group 25 mg·kg^−1d^−1.
[7] abbreviates: Sildenafil group 25 mg·kg^−1d^−1 gavage once a day for 14 days.
Setting [8] is: Tadalafil group 10 mg·kg^−1d^−1 gavage once a day for 14 days.

Procedure for IPF rats: The animals were purchased, and modeling was started after 3-7 days of acclimatization. The animals were weighed and anesthetized by inhalation with isoflurane. After the animals were confirmed to be anesthetized, the neck was disinfected, and the skin of the neck was cut. The main trachea was exposed by bluntly dissecting the muscle, a small incision was made between the tracheal rings, into which a PE-20 tube was inserted until the left main bronchus, and bleomycin was injected directly (dose: 3 mg/kg, volume: 1.0 ml/kg). The trachea and skin were sutured. After the surgery, the animals were kept warm at 37° C. under an electric blanket until the animals were fully awake and confirmed to be able to feed and drink freely before returning the animals to their normal feeding cages.
50 mg/kg Nintedanib group (BIBF-50 mg/kg): BIBF was prepared into a solution of 10 mg/ml with 0.5% sodium carboxymethyl cellulose and administered by gavage at a dose of 50 mg/kg^−1·d^−1;
Each group of rats was administered by gavage on the day of modeling, once a day for 23 days in total.
After 23 days of continuous administration, all animals in each group were euthanized by intraperitoneal injection of pentobarbital sodium anesthetic (100 mg/kg) in accordance with the KCl standard operating procedure for animal euthanasia. Whole-body perfusion was performed by low-temperature PBS, and then fixation was performed by whole-body formalin perfusion. The left lung was taken and perfused with an equal amount of formalin fluid for weighing and subsequent lung pathology-related tests.
Left lung gross pathological examination: after perfusion with an equal amount of formalin, the wet weight of the left lung after the perfusion was weighed and recorded with a microbalance; the volume of the left lung after perfusion was measured and recorded using a toe volume measuring instrument.
The whole lung of the left lung was dehydrated according to the KCl pathology standard SOPs, and paraffin blocks were prepared. The whole lung of the left lung was paraffin-sectioned at a thickness of 3-4 μm. HE staining and Masson Trichrome staining were performed according to the KCl pathology standard staining SOPs, and the slice panoramic scanning was carried out by a Hamamatsu NanoZoomer Digital Pathology (S210) slice scanner. The lung lesion area was calculated by Masson Trichrome staining of the sections, and the left lung fibrosis area (%) was the percentage of fibrosis area in the left lung area; 10 randomly selected fields of view of 1 mm^2 in the lesion area were semi-quantitatively scored by the pathologist under double-blind conditions according to the Ashcroft scoring system (as shown in Table 8 and FIG. 40).

In the data set on IPF rats (50 mg/kg gavage once a day), `COC(=O)c1ccc2c(c1)NC(=O)/C2=C(\Nc1ccc(N(C)C(=O)CN2CCN(C)CC2)cc1)c1ccccc1` [BIBF, Nintedanib, reference compound] returned a Left lung volume of 1736.9 ± 136.10 mm^3 and a Left lung weight of 1.58 ± 0.12 g. Further, in the data set with IPF rats (50 mg/kg), the “alveolar tissue structure in left lung pulmonary fibrosis lesions (HE staining)” value is on record as “some of the alveolar structures in the fibrotic lesions were still damaged” and the “alveolar tissue structure in left lung pulmonary fibrosis lesions (Masson Trichrom staining)” value is “some of the alveolar structures in the fibrotic lesions disappeared”. Moreover, the “left lung pulmonary fibrosis lesions and lesion range vs the model group” value with IPF rats (different doses, H&E and Masson Trichrom staining) is recorded as “no significant difference”. In addition, in the data set on IPF rats (left lung, 50 mg/kg), the Fibrosis area is given as 56.91 ± 4.19% and the “Percentage of score (%) (≤3)” value is 78.75 ± 4.79 %.

Take `CCCc1nn(C)c2c(=O)[nH]c(-c3cc(S(=O)(=O)N4CCN(C)CC4)ccc3OCC)nc12` [Sildenafil, reference compound]: the “rats showing penile erection” value in the data set with PAH rats [1] (Sildenafil group 25 mg·kg^−1d^−1, over 30 minutes after gavage) turned out to be 80%. In addition, the bioavailability entry in data set [2] is “about 41%”. In the data set on PAH rats [3] (setting [6]), the “WT % of pulmonary arterioles vs PAH model group” value is “not statistically significant” and the “tunica media thickness of pulmonary arterioles vs PAH model group” value is given as “decrease”. In the data set on PAH rats [3] (setting [7]), the “RVMI, RV/(LV+S)” value is listed as 48.4±1.0% and the RVSP stood at 60.4±5.0 mmHg. The “selective effect on PDE5 relative to PDE6” value at PDE5 is 10 times.

For the molecule `CN1CC(=O)N2[C@H](c3ccc4c(c3)OCO4)c3[nH]c4ccccc4c3C[C@@H]2C1=O` [Tadalafil, reference compound], the “rats showing penile erection” value in the data set with PAH rats [1] (Tadalafil group 10 mg·kg^−1d^−1, over 30 minutes after gavage) worked out at 80%. The biological half-life result in data set [2] was “approximately 17.5 hours”. In the data set on PAH rats [3] (setting [8]), the “RVMI, RV/(LV+S)” value came to 41.8±1.9% and the RVSP was determined as 52.5±2.4 mmHg.

Turning to `CCCCOC(=O)NS(=O)(=O)c1cccc(-c2nc3c(CCC)nn(C)c3c(=O)[nH]2)c1` [compound WYQ, 5-(2-H-5 (N-butoxycarbonylaminosulfonyl)phenyl)-1-methyl-3-propyl-1,6-dihydro-7H-pyrazolo [4,3-d]pyrimidin-7-one], the “crystal form change after XRPD assay (FC)” value in data set [4] (FaSSIF, 1 h) is “yes”; in data set [4] (FaSSIF, 4 h), “yes”; in data set [4] (FaSSIF, 24 h), “yes”; in data set [4] (FeSSIF, 1 h), “yes”; in data set [4] (FeSSIF, 4 h) it was “yes”; in data set [4] (FeSSIF, 24 h), “yes”. Further, the “crystal form change after XRPD assay (FC)” value in data set [4] (SGF, 1 h) is “yes”; in data set [4] (SGF, 4 h), “yes”; in data set [4] (SGF, 24 h) it was “yes”; in data set [4] (water, 1 h), “yes”; in data set [4] (water, 4 h), “yes”; in data set [4] (water, 24 h) it was “yes”. For the same molecule, the pH in data set [4] (FaSSIF, 1 h) stood at 6.5; in data set [4] (FaSSIF, 4 h) it was 6.5; in data set [4] (FaSSIF, 24 h) it was 6.6; in data set [4] (FeSSIF, 1 h) it was 5.0; in data set [4] (FeSSIF, 4 h) it was 5.0; in data set [4] (FeSSIF, 24 h), 5.0. The pH in data set [4] (SGF, 1 h) was found to be 2.4; in data set [4] (SGF, 4 h) it was 2.5; in data set [4] (SGF, 24 h) it was 2.4; in data set [4] (water, 1 h), 7.7; in data set [4] (water, 4 h), 7.9; in data set [4] (water, 24 h), 7.6. For the same molecule, the solubility at 1 h in data set [4] (fasted-state simulated intestinal fluid (FaSSIF), FaSSIF, 1 h) was 1900 µg/mL (≈ 4250 µM); in data set [4] (fed-state simulated intestinal fluid (FeSSIF), FeSSIF, 1 h), 160 µg/mL (≈ 358 µM); in data set [4] (simulated gastric fluid (SGF), simulated gastric fluid, SGF, 1 h) it was 5.6 µg/mL (≈ 12.5 µM); in data set [4] (water, 1 h) it was 2200 µg/mL (≈ 4920 µM). Moreover, the solubility at 4 h in data set [4] (fasted-state simulated intestinal fluid (FaSSIF), FaSSIF, 4 h) is 1900 µg/mL (≈ 4250 µM); in data set [4] (fed-state simulated intestinal fluid (FeSSIF), FeSSIF, 4 h) it was 160 µg/mL (≈ 358 µM); in data set [4] (simulated gastric fluid (SGF), simulated gastric fluid, SGF, 4 h), 6 µg/mL (≈ 13.4 µM); in data set [4] (water, 4 h), 1800 µg/mL (≈ 4020 µM). Also, the solubility at 24 h is 2000 µg/mL (≈ 4470 µM) in data set [4] (fasted-state simulated intestinal fluid (FaSSIF), FaSSIF, 24 h); 160 µg/mL (≈ 358 µM) in data set [4] (fed-state simulated intestinal fluid (FeSSIF), FeSSIF, 24 h); 6.9 µg/mL (≈ 15.4 µM) in data set [4] (simulated gastric fluid (SGF), simulated gastric fluid, SGF, 24 h); 2200 µg/mL (≈ 4920 µM) in data set [4] (water, 24 h). Further, the “decrease in purity after one week of placement” value in data set [5] (25° C./60% RH) was “No significant decrease”. The “HPLC purity: Purity after placement” value was determined as 97.17 area % in data set [5] (25° C./60% RH, one week) and 96.30 area % in data set [5] (40° C./75% RH, one week). Besides, the “Purity after placement/Starting purity” value is on record as 99.8% in data set [5] (25° C./60% RH, one week) and 98.9% in data set [5] (40° C./75% RH, one week). In addition, the Crystal form change entry in data set [5] (25° C./60% RH, one week) was “unchanged”; in data set [5] (40° C./75% RH, one week), “changed”. Also, the “decrease in HPLC purity (area %)” value in data set [5] (40° C./75% RH, one week) is reported as “about 1%”.
